Data reported in patent US20240116985A1, “STAPLED PEPTIDES AND METHODS THEREOF” (priority 2020, published 2024).
Values after ≈ are worked out from the molar mass of the structure shown. Like-named read-outs stand apart in the source and are kept apart here.

What was measured:
[1] = biological target: T1, full-length beta-Catenin (Uniprot ID P35222) (Homo sapiens, UniProt P35222); assay: Fluorescence polarization IC50 (beta-catenin / 5FAM-TCF4 10-53 competition); type: binding
T1 construct: 10 nM full-length beta-Catenin (Uniprot ID P35222)
T1 sequence (P35222 1-781): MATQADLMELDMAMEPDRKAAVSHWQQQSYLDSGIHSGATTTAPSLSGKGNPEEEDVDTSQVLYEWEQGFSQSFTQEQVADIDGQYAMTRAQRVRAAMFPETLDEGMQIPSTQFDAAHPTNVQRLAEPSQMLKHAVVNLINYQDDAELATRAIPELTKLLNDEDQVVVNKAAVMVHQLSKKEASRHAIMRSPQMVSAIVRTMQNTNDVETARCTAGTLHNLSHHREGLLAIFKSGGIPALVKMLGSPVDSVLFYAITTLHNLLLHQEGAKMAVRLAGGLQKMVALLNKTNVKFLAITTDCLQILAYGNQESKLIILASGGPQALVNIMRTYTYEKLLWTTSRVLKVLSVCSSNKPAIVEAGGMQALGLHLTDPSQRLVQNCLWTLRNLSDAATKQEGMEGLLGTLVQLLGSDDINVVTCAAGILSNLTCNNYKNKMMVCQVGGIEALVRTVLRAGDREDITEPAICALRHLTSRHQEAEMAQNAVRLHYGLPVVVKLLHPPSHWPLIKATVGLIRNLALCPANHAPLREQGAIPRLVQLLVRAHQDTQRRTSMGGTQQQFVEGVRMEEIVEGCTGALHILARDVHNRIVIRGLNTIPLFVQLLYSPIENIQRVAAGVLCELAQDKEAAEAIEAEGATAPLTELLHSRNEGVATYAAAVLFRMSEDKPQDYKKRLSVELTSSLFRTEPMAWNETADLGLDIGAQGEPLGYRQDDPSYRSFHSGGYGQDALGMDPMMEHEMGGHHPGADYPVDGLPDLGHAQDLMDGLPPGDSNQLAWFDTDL

Solubility in PBS = type: physicochemical
How it was run: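 The PBS solution was ultracentrifuged and the supernatant analyzed by HPLC. Its peak area was divided by that of a 50 μM peptide DMSO reference injection and multiplied by 50 uM to give solubility.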

[2] = biological target: T2, beta-catenin/TCF4 engagement (Homo sapiens, UniProt P35222); assay: Nano-BRET target engagement assay (B-cat-Halo & TCF4-Luc in HEK293 cells); type: cell-based; details: absolute IC50; read-out: NanoBRET Abs IC50
T2 construct: expressed in transfected cells; host or cells: HEK293
T2 sequence (P35222 1-781): T1 sequence (P35222 1-781)

[3] = fluorescence polarization, read-out: beta-Catenin FP IC50

Row | Structure (SMILES) | IC50 [1, 3] [nM] | Solubility (Solubility in PBS) [µM] | IC50 [2] [nM] | Solubility (Solubility in PBS; Solubility (uM)) [µM] | IC50 ([1]; beta-Catenin FP IC50, fluorescence polarization) [nM] | IC50 ([1]; fluorescence polarization, beta-catenin, read-out: FP EC50) [nM]
1 | CC(=O)N1CCC[C@]12CC=CCCCC1(CCCC=CCCCOC(=O)N3CC[C@@](C(=O)N[C@@H](Cc4ccccc4Cl)C(=O)N[C@@H](Cc4csc5ccccc45)C(=O)N[C@@H](CC(C)C)C(N)=O)(C3)NC(=O)[C@H]([C@@H](C)O)NC(=O)[C@H](Cc3ccccc3)NC(=O)[C@H](C)NC(=O)[C@H](CCCCNC(C)C)NC(=O)[C@H](CC(=O)O)NC(=O)[C@H](CC(=O)O)NC1=O)NC(=O)[C@H](CC(C)(C)C)NC(=O)[C@H](CC(=O)O)NC2=O (stereo partly drawn) [I-1274, Ac-PL3-Asp-Npg-B5-Asp-Asp-iPrLys-Ala-Phe-Thr-PyrS2-2C1F-BztA-Leu-NH2] | 13 | 10 (≈ 20.2 µg/mL) | > 20000 |  |  | 
2 | CC(=O)N1CCC[C@]12CC=CCCCC1(CCCC=CCCCOC(=O)N3CC[C@@](C(=O)N[C@@H](Cc4ccccc4C(F)(F)F)C(=O)N[C@@H](Cc4csc5ccccc45)C(=O)N[C@H](CO)[C@@H](C)O)(C3)NC(=O)[C@H](Cc3ccccc3)NC(=O)[C@H](Cc3ccccc3)NC(=O)[C@H](C)NC(=O)[C@H](C)NC(=O)[C@H](Cc3cccc(C(=O)O)c3)NC(=O)[C@H](CC(=O)O)NC1=O)NC(=O)[C@H](CC(C)(C)C)NC(=O)[C@H](CC(=O)O)NC2=O (stereo partly drawn) [I-1343, Ac-PL3-Asp-Npg-B5-Asp-3COOHF-Ala-Ala-Phe-Phe-PyrS2-2F3MeF-BztA-Thro1] | 150 | 10 (≈ 20.5 µg/mL) |  |  |  | 
3 | CC(=O)N1CCC[C@]12CC=CCCCC1(CCCC=CCCCOC(=O)N3CC[C@@](C(=O)N[C@@H](Cc4ccccc4Cl)C(=O)N[C@@H](Cc4csc5ccccc45)C(=O)N[C@@H](CC(C)C)C(N)=O)(C3)NC(=O)[C@H](CO)NC(=O)[C@H](Cc3ccccc3)NC(=O)[C@H](C)NC(=O)[C@H](C)NC(=O)[C@H](CC(=O)O)NC(=O)[C@H](CC(=O)O)NC1=O)NC(=O)[C@H](Cc1ccccc1)NC(=O)[C@H](CC(=O)O)NC2=O (stereo partly drawn) [I-1144, Ac-PL3-Asp-Phe-B5-Asp-Asp-Ala-Ala-Phe-Ser-PyrS2-2C1F-BztA-Leu-NH2] | 28 |  |  | 32 (≈ 61.6 µg/mL) |  | 
4 | CC(=O)N1CCC[C@]12CC=CCCCC1(CCCC=CCCCCCC[C@@](C)(C(=O)N[C@@H](Cc3ccsc3)C(=O)N[C@@H](Cc3csc4ccccc34)C(=O)N[C@H](CCC(N)=O)C(N)=O)NC(=O)[C@H](CC(C)C)NC(=O)[C@H](Cc3ccccc3)NC(=O)[C@H](C)NC(=O)[C@H](C)NC(=O)[C@H](CC(=O)O)NC(=O)[C@H](CC(=O)O)NC1=O)NC(=O)[C@H](CC(C)(C)C)NC(=O)[C@H](CC(=O)O)NC2=O (stereo partly drawn) [I-1199, Ac-PL3-Asp-Npg-B5-Asp-Asp-Ala-Ala-Phe-Leu-S8-3Thi-BztA-dGln-NH2] | 44.5 |  |  | 19 (≈ 35.6 µg/mL) |  | 
5 | CC(=O)N1CCC[C@]12CC=CCCCC1(CCCC=CCCCOC(=O)N3CC[C@@](C(=O)N[C@@H](Cc4cccc(C(F)(F)F)c4)C(=O)N[C@@H](Cc4csc5ccccc45)C(=O)N[C@@H](CO)C(N)=O)(C3)NC(=O)[C@H]([C@@H](C)O)NC(=O)[C@H](Cc3ccccc3)NC(=O)[C@H](C)NC(=O)[C@H](C)NC(=O)[C@H]([C@@H](C)O)NC(=O)[C@H](CC(=O)O)NC1=O)NC(=O)[C@H](CC(C)(C)C)NC(=O)[C@H](CC(=O)O)NC2=O (stereo partly drawn) [I-1271, Ac-PL3-Asp-Npg-B5-Asp-Thr-Ala-Ala-Phe-Thr-PyrS2-3F3MeF-BztA-Ser-NH2] | 682 | 10 (≈ 19.1 µg/mL) |  |  |  | 
6 | CC(=O)N1CCC[C@]12CC=CCCCC1(CCCC=CCCCOC(=O)N3CC[C@@](C(=O)N[C@@H](Cc4ccccc4Cl)C(=O)N[C@@H](Cc4csc5ccccc45)C(=O)N[C@@H](CO)C(N)=O)(C3)NC(=O)[C@H]([C@@H](C)O)NC(=O)[C@H](Cc3ccccc3)NC(=O)[C@H](CC(C)C)NC(=O)[C@H](CC(C)C)NC(=O)[C@H](CC(=O)O)NC(=O)[C@H](CC(=O)O)NC1=O)NC(=O)[C@H](Cc1ccccc1)NC(=O)[C@H](CC(=O)O)NC2=O (stereo partly drawn) [I-1158, Ac-PL3-Asp-Phe-B5-Asp-Asp-Leu-Leu-Phe-Thr-PyrS2-2C1F-BztA-Ser-NH2] |  | 29 (≈ 57.9 µg/mL) |  |  | 168 | 
7 | CC(=O)N1CCC[C@]12CC=CCCCC1(CCCC=CCCCOC(=O)N3CC[C@@](C(=O)N[C@@H](Cc4ccccc4)C(=O)N[C@@H](Cc4csc5ccccc45)C(=O)N[C@@H](CCC(N)=O)C(N)=O)(C3)NC(=O)[C@H](CC(C)C)NC(=O)[C@H](Cc3ccccc3)NC(=O)[C@H](C)NC(=O)[C@H](CCCCNC(C)C)NC(=O)[C@H]([C@@H](C)O)NC(=O)[C@H](CC(=O)O)NC1=O)NC(=O)[C@H](CC(C)(C)C)NC(=O)[C@H](CC(N)=O)NC2=O (stereo partly drawn) [I-1288, Ac-PL3-Asn-Npg-B5-Asp-Thr-iPrLys-Ala-Phe-Leu-PyrS2-Phe-BztA-Gln-NH2] | 1160 | 10 (≈ 20 µg/mL) |  |  |  | 1160
8 | CC(=O)N1CCC[C@]12CC=CCCCC1(CCCC=CCCCOC(=O)N3CC[C@@](C(=O)N[C@@H](Cc4ccsc4)C(=O)N[C@@H](Cc4csc5ccccc45)C(=O)N[C@H](CO)[C@@H](C)O)(C3)NC(=O)[C@H]([C@@H](C)O)NC(=O)[C@H](Cc3ccccc3)NC(=O)[C@H](C)NC(=O)[C@H](C)NC(=O)[C@H](CC(=O)O)NC(=O)[C@H](CC(=O)O)NC1=O)NC(=O)[C@H](CC(C)(C)C)NC(=O)[C@H](CC(=O)O)NC2=O (stereo partly drawn) [I-1306, Ac-PL3-Asp-Npg-B5-Asp-Asp-Ala-Ala-Phe-Thr-PyrS2-3Thi-BztA-Thro1] | 6 | 50 (≈ 93.3 µg/mL) |  |  |  | 
9 | CC(=O)N1CCC[C@]12CC=CCCCC1(CCCC=CCCCCCC[C@@](C)(C(=O)N[C@@H](Cc3ccccc3Cl)C(=O)N[C@@H](Cc3csc4ccccc34)C(=O)N[C@H](CCC(N)=O)C(N)=O)NC(=O)[C@H](CC(C)C)NC(=O)[C@H](Cc3ccccc3)NC(=O)[C@H](C)NC(=O)[C@H](C)NC(=O)[C@H](CC(=O)O)NC(=O)[C@H](CC(=O)O)NC1=O)NC(=O)[C@H](CC(C)(C)C)NC(=O)[C@H](CC(=O)O)NC2=O (stereo partly drawn) [I-1198, Ac-PL3-Asp-Npg-B5-Asp-Asp-Ala-Ala-Phe-Leu-S8-2C1F-BztA-dGln-NH2] | 65 |  |  | 47 (≈ 89.4 µg/mL) |  | 
10 | CC(=O)N1CCC[C@]12CC=CCCCC1(CCCC=CCCCOC(=O)N3CC[C@@](C(=O)N[C@@H](Cc4ccccc4)C(=O)N[C@@H](Cc4csc5ccccc45)C(=O)N[C@@H](CCC(N)=O)C(N)=O)(C3)NC(=O)[C@H](CC(C)C)NC(=O)[C@H](Cc3ccccc3)NC(=O)[C@H](C)NC(=O)[C@H](CCCCNC(C)C)NC(=O)[C@H](CCC(N)=O)NC(=O)[C@H](CC(N)=O)NC1=O)NC(=O)[C@H](C)NC(=O)[C@H](CC(=O)O)NC2=O (stereo partly drawn) [I-1379, Ac-PL3-Asp-Ala-B5-Asn-Gln-iPrLys-Ala-Phe-Leu-PyrS2-Phe-BztA-Gln-NH2] | 1440 | 10 (≈ 19.7 µg/mL) |  |  |  | 
11 | CC(=O)N1CCC[C@]12CC=CCCCC1(CCCC=CCCCOC(=O)N3CC[C@@](C(=O)N[C@@H](Cc4ccccc4)C(=O)N[C@@H](Cc4ccc5ccccc5c4)C(=O)N[C@@H](CCC(N)=O)C(N)=O)(C3)NC(=O)[C@H](CC(C)C)NC(=O)[C@H](Cc3ccccc3)NC(=O)[C@H](C)NC(=O)[C@H](CCCCNC(C)C)NC(=O)[C@H]([C@@H](C)O)NC(=O)[C@H](CC(=O)O)NC1=O)NC(=O)[C@H](C)NC(=O)[C@H](CC(N)=O)NC2=O (stereo partly drawn) [I-1387, Ac-PL3-Asn-Ala-B5-Asp-Thr-iPrLys-Ala-Phe-Leu-PyrS2-Phe-2NapA-Gln-NH2] | 6940 | 10 (≈ 19.3 µg/mL) |  |  |  | 
12 | CC(=O)N1CCC[C@]12CC=CCCCC1(CCCC=CCCCOC(=O)N3CC[C@@](C(=O)N[C@@H](Cc4ccccc4Cl)C(=O)N[C@@H](Cc4csc5ccccc45)C(=O)N[C@@H](CCC(N)=O)C(N)=O)(C3)NC(=O)[C@H](CC(C)C)NC(=O)[C@H](Cc3ccccc3)NC(=O)[C@H](C)NC(=O)[C@H](C)NC(=O)[C@H]([C@@H](C)O)NC(=O)[C@H](CC(=O)O)NC1=O)NC(=O)[C@H](CC(C)(C)C)NC(=O)[C@H](CC(=O)O)NC2=O (stereo partly drawn) [I-1169, Ac-PL3-Asp-Npg-B5-Asp-Thr-Ala-Ala-Phe-Leu-PyrS2-2C1F-BztA-Gln-NH2] | 159 | 10 (≈ 19.3 µg/mL) |  |  |  | 
13 | CC(=O)N1CCC[C@]12CC=CCCCC1(CCCC=CCCCCCC[C@@](C)(C(=O)N[C@@H](Cc3ccsc3)C(=O)N[C@@H](Cc3csc4ccccc34)C(=O)N[C@@H](Cc3c[nH]nn3)C(N)=O)NC(=O)[C@H](CC(C)C)NC(=O)[C@H](Cc3ccccc3)NC(=O)[C@H](C)NC(=O)[C@H](C)NC(=O)[C@H](CC(=O)O)NC(=O)[C@H](CC(=O)O)NC1=O)NC(=O)[C@H](CC(C)(C)C)NC(=O)[C@H](CC(=O)O)NC2=O (stereo partly drawn) [I-1193, Ac-PL3-Asp-Npg-B5-Asp-Asp-Ala-Ala-Phe-Leu-S8-3Thi-BztA-4TriA-NH2] | 78.5 | 10 (≈ 18.8 µg/mL) |  |  |  | 
